Source: patent publication US20070276034A1, “Compounds, compositions and methods for the treatment of synucleinopathies” (priority 2002, published 2007)
Where two headings read alike, the source gives them in different places.

Key:
Format in all cases: biochemical
Aβ 1-42 fibrils [1] = target: T1, Aβ 1-42 fibrils (Homo sapiens, UniProt P05067); assay: Thioflavin T fluorometry - disruption of pre-formed Aβ 1-42 Alzheimer's fibrils; conditions: 25 μM pre-fibrillized Aβ 1-42, 37° C., 3 days; for inhibition: read-out: % Inhibition Aβ (result ± S.D.)
T1 construct: purchased Bachem Inc
Description: In one study, Thioflavin T fluorometry was used to determine the effects of the compounds, and of EDTA (as a negative control). In this assay Thioflavin T binds specifically to fibrillar amyloid, and this binding produces a fluorescence enhancement at 485 nm that is directly proportional to the amount of amyloid fibrils formed. The higher the fluorescence, the greater the amount of amyloid fibrils formed (Naki et al., Lab. Invest. 65:104-110, 1991; Levine III, Protein Sci. 2:404-410, 1993; Amyloid: Int. J. Exp. Clin. Invest. 2:1-6, 1995).
(§1) In this study, 25 μM of pre-fibrillized Aβ 1-42 (Bachem Inc) was incubated at 37° C. for 3 days either alone, or in the presence of one of the compounds or EDTA (at Aβ:test compound weight ratios of 1:1, 1:0.1, 1:0.01 or 1:0.001). Following 3-days of co-incubation, 50 μl of each incubation mixture was transferred into a 96-well microtiter plate containing 150 μl of distilled water and 50 μl of a Thioflavin T solution (i.e. 500 mM Thioflavin T in 250 mM phosphate buffer, pH 6.8). The fluorescence was read at 485 nm (444 nm excitation wavelength) using an ELISA plate fluorometer after subtraction with buffer alone or compound alone, as blank.

Aβ 1-42 fibrils [2] = target: T1, Aβ 1-42 fibrils; assay: Circular dichroism spectroscopy of Aβ 1-42 fibrils; conditions: for disruption of β-sheet structure in Aβ 1-42 fibrils (CD minima at 218 nm): 3 days co-incubation, 25 μM Aβ 1-42 (FIG. 1, FIG. 2); for dose-response of disruption of β-sheet structure of Aβ 1-42 fibrils (CD minima at 218 nm): Aβ:test compound wt/wt ratios of 1:0.1, 1:1 and 1:10 (FIG. 3)
Protocol: Circular dichroism (CD) spectroscopy is a method that can be used to determine the effects of test compounds to disrupt the secondary structure conformation of amyloid fibrils. In one study, as described in this example, circular dichroism spectroscopy was used to determine the effects of different compounds of the invention on β-sheet conformation of Aβ 1-42 fibrils. For this study, Aβ 1-42 (Bachem Inc., Torrance, Calif.) was first dissolved in a 2 mM NaOH solution, maintaining the pH of these solutions above 10. […] Aβ 1-42 was then incubated at 37° C. in the absence or presence of different compounds at an Aβ:test compound wt/wt ratios of 1:0.1, 1:1 and 1:10. After 3 days of incubation, CD spectra were recorded on a Jasco 810 spectropolarimeter (Easton, Md.). All CD spectra were collected with 0.05 cm quartz cells. Wavelength traces were scanned from 190-260 nm at 0.5 nm increments with a bandwidth of 5 nm, at a scan speed of 10 nm/minute, a response time of 32 seconds, and a data pitch of 0.5 nm. The whole system was equilibrated and continuously flushed with nitrogen at 10 ml/minute. […] Ellipticity in degrees was converted to MRE ([Q]; molar residue ellipticity) using the formula [Q]=100•[…]; where Q is the ellipticity in degrees; […]

IAPP fibrils [3] = target: T2, IAPP fibrils (Homo sapiens, UniProt P10997); assay: Thioflavin T fluorometry - disruption of type 2 diabetes IAPP fibrils; conditions: 25 μM pre-fibrillized IAPP, 37° C., 3 days; for inhibition: read-out: % Inhibition IAPP (result ± S.D.)
T2 construct: purchased Bachem Inc
T2 sequence (P10997 34-70 limits assumed): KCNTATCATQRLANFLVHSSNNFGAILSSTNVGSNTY
Protocol: In this assay Thioflavin T binds specifically to fibrillar amyloid, and this binding produces a fluorescence enhancement at 485 nm that is directly proportional to the amount of IAPP fibrils present. The higher the fluorescence, the greater the amount of IAPP fibrils present (Naki et al, Lab. Invest. 65:104-110, 1991; Levine III, Protein Sci. 2:404-410, 1993; Amyloid: Int. J. Exp. Clin. Invest. 2:1-6, 1995).
as §1, with “IAPP” for “Aβ 1-42”, “IAPP:test” for “Aβ:test”

IAPP fibrils [4] = target: T2, IAPP fibrils; assay: Congo red binding assay with IAPP fibrils; conditions: 3-day incubation
Protocol: (§2) In the Congo red binding assay the ability of a given test compound to alter amyloid (in this case, IAPP) binding to Congo red is quantified. In this assay, IAPP and test compounds were incubated for 3 days and then vacuum filtered through a 0.2 μm filter. The amount of IAPP retained in the filter was then quantitated following staining of the filter with Congo red. After appropriate washing of the filter, any lowering of the Congo red color on the filter in the presence of the test compound (compared to the Congo red staining of the amyloid protein in the absence of the test compound) was indicative of the test compound's ability to diminish/alter the amount of aggregated and congophilic IAPP.
In the study, the ability of IAPP fibrils to bind Congo red in the absence or presence of increasing amounts of the compounds or EDTA (at IAPP:test compound weight ratios of 1:1, 1:0.1, 1:0.01 or 1:0.001) was determined.

monomeric Aβ 1-42 = target: T3, monomeric Aβ 1-42 (Homo sapiens, UniProt P05067); assay: SDS-PAGE/Western blot of Aβ 1-42 after incubation with compounds; conditions: 25 μM pre-fibrillized Aβ 1-42, 37° C., 3 days, 0.2 μm filtrate, antibody 6E10
T3 construct: purchased Bachem Inc
Protocol: In this latter study, triplicate samples of pre-fibrillized Aβ 1-42 (25 μM) was incubated at 37° C. for 3 days, alone or in the presence of the compounds or EDTA. Five micrograms of each sample was then filtered through a 0.2 μm filter. Protein recovered from the filtrate was then loaded, and ran on a 10-20% Tris-Tricine SDS-PAGE, blotted to nitrocellulose and detected using an Aβ-antibody (clone 6E10; Senetek).

Aβ 1-42 fibrils [5] = target: T1, Aβ 1-42 fibrils; assay: Congo red binding assay with Aβ 1-42 fibrils; conditions: 3-day incubation
Protocol: as §2, with “a” for “a given”, “Aβ)” for “IAPP)”, “Aβ 1-42” for “IAPP”, “Aβ.” for “IAPP.”
In one study, the ability of Aβ fibrils to bind Congo red in the absence or presence of increasing amounts of the compounds or EDTA (at Aβ:test compound weight ratios of 1:1, 1:0.1, 1:0.01 or 1:0.001) was determined.

[6] = Aβ:test compound wt/wt ratio 1:0.001
[7] = Aβ:test compound wt/wt ratio 1:0.01
[8] = Aβ:test compound wt/wt ratio 1:0.1
[9] = Aβ:test compound wt/wt ratio 1:1
[10] = IAPP:test compound wt/wt ratio 1:0.001
[11] = IAPP:test compound wt/wt ratio 1:0.01
[12] = IAPP:test compound wt/wt ratio 1:0.1
[13] = IAPP:test compound wt/wt ratio 1:1

T1 sequence (P05067 672-713): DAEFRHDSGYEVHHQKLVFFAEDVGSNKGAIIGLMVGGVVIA
T3 sequence (P05067 672-713): as above

SMILES	inhibition (Aβ 1-42 fibrils [1]; [6]) [%]	inhibition (Aβ 1-42 fibrils [1]; [7]) [%]	inhibition (Aβ 1-42 fibrils [1]; [8]) [%]	inhibition (Aβ 1-42 fibrils [1]; [9]) [%]	disruption of β-sheet structure in Aβ 1-42 fibrils (CD minima at 218 nm) (Aβ 1-42 fibrils [2])	dose-response of disruption of β-sheet structure of Aβ 1-42 fibrils (CD minima at 218 nm) (Aβ 1-42 fibrils [2])	inhibition (IAPP fibrils [3]; [10]) [%]	inhibition (IAPP fibrils [3]; [11]) [%]	inhibition (IAPP fibrils [3]; [12]) [%]	inhibition (IAPP fibrils [3]; [13]) [%]	% Inhibition IAPP (result ± S.D.), Congo red binding (IAPP fibrils [4]; [10]) [%]	% Inhibition IAPP (result ± S.D.), Congo red binding (IAPP fibrils [4]; [11]) [%]	% Inhibition IAPP (result ± S.D.), Congo red binding (IAPP fibrils [4]; [12]) [%]	% Inhibition IAPP (result ± S.D.), Congo red binding (IAPP fibrils [4]; [13]) [%]	detection of Aβ 1-42 monomers (~4 kilodalton band) on Western blot (monomeric Aβ 1-42)	further results
Oc1ccc(CN[C@@H]2CCCC[C@H]2NCc2ccc(O)c(O)c2)cc1O (relative stereo) [Compound 12, N,N′-bis(3,4-dihydroxybenzyl)-trans-1,2-diaminocyclohexane]	0	10.8 ± 21.9	82 ± 1.13	99.7 ± 0.17	marked disruption of β-sheet structure	dose-dependent decrease in the minima	13 ± 10.3	37.5 ± 0.76	86 ± 0.76	99.9 ± 0.19	0.0 ± 2.40	6.9 ± 2.45	8.3 ± 0.85	39.8 ± 0.26	–	–
O=C(C=Cc1ccc(O)c(O)c1)NCc1ccc(O)c(O)c1 [Compound 61, 3,4-dihydroxycinnamic acid 3,4-dihydroxybenzylamide]	26 ± 7.51	16.9 ± 1.39	80.1 ± 4.76	100 ± 0.41	marked disruption of β-sheet structure	dose-dependent decrease in the minima	0.5 ± 6.33	35.4 ± 5.68	83.6 ± 1.27	96.8 ± 0.47	0.0 ± 3.87	4.0 ± 1.78	0.0 ± 7.07	23.7 ± 0.39	–	–
O=C(NCCc1ccc(O)c(O)c1)Nc1ccc(O)c(O)c1 [Compound 78, 1-(3,4-dihydroxyphenyl)-3-(3,4-dihydroxyphenethyl)urea]	22.4 ± 5.63	57.8 ± 4.63	89.7 ± 1.8	100 ± 0.78	marked decrease in the minima	–	15.3 ± 4.73	58.3 ± 1.2	92.4 ± 0.27	99.5 ± 0.26	6.6 ± 3.04	19.9 ± 2.12	16.7 ± 6.80	56.3 ± 5.32	not detected	–
CN1C2CCC1C(Cc1ccc(O)c(O)c1)C(=O)C2Cc1ccc(O)c(O)c1 (stereo not drawn) [Compound 19, 2,4-bis(3,4-dihydroxybenzyl)-3-tropinone]	–	–	–	–	–	–	–	–	–	–	–	6.0 ± 0.78	21.0 ± 3.70	49.3 ± 3.97	not detected	% Inhibition Aβ (result ± S.D.) (Aβ 1-42 fibrils [1]; [6]): 10.8 ± 1.38%; % Inhibition Aβ (result ± S.D.) (Aβ 1-42 fibrils [1]; [7]): 46.2 ± 2.98%; % Inhibition Aβ (result ± S.D.) (Aβ 1-42 fibrils [1]; [8]): 91.1 ± 0.66%; % Inhibition Aβ (result ± S.D.) (Aβ 1-42 fibrils [1]; [9]): 99.1 ± 0.56%; % Inhibition Aβ (result ± S.D.), Congo red binding (Aβ 1-42 fibrils [5]; [7]): 7.4 ± 2.20%; % Inhibition Aβ (result ± S.D.), Congo red binding (Aβ 1-42 fibrils [5]; [8]): 22.4 ± 2.19%; % Inhibition Aβ (result ± S.D.), Congo red binding (Aβ 1-42 fibrils [5]; [9]): 48.1 ± 2.00%; % Inhibition IAPP (result ± S.D.) (IAPP fibrils [3]; [10]): 16.7 ± 10.20%; % Inhibition IAPP (result ± S.D.) (IAPP fibrils [3]; [11]): 51.7 ± 2.98%; % Inhibition IAPP (result ± S.D.) (IAPP fibrils [3]; [12]): 94.0 ± 0.10%; % Inhibition IAPP (result ± S.D.) (IAPP fibrils [3]; [13]): 100.0 ± 0.24%
